In patent US20230357269A1 (LES LABORATOIRES SERVIER, priority 2020, published 2023):

Biological target: human recombinant LRRK2 protein (Homo sapiens (Human), UniProt Q5S007)
Test: LRRK2 Kinase Activity Assay (ADP-Glo)
Assay type: biochemical
Conditions: LRRK2 wt; LRRKtide peptide and ATP substrates; 1h-incubation at 37° C.
Method: LRRK2 Kinase reactions were carried out in 384-well white polystyrene plates in a final volume of 6 μl using ADP-Glo™ Kinase Assay kit (Promega Corp.). Compound and substrates (LRRKtide peptide and ATP) in assay buffer were first dispensed in wells. Kinase reaction was then started by the addition of human recombinant LRRK2 protein. After 1h-incubation at 37° C., the enzymatic reaction was stopped by the addition of 6 μl of ADP-Glo Reagent-1 and an additional 40-minutes incubation at 23° C. (residual ATP depletion). A final 30-minutes incubation after 12 μL reagent-2 addition (ADP to ATP conversion and luciferin/luciferase reaction) was performed before luminescent signal acquisition (EnVision™ multimode plate reader-PerkinElmer, Inc.). Data from 10 individual concentrations of tested compounds (N=2) were fitted (XLfit™-ID Business Solutions Ltd) to deliver IC50s (compound concentration leading to 50% inhibition of reference enzymatic activity).
The compounds are dissolved to 5 mM in DMSO. When needed, solutions are sonicated in a bath sonicator.
Table 2 provides the IC50 values of the compounds according to the invention, obtained using the above-mentioned kinase assay. Activities are represented as +++, ++ and +, having the following meanings: • +++ means IC50<10 nM • ++ means 10 nM≤IC50<100 nM • + means 100 nM≤IC50<1 μM.

Chain of human recombinant LRRK2 protein (Q5S007 whole entry): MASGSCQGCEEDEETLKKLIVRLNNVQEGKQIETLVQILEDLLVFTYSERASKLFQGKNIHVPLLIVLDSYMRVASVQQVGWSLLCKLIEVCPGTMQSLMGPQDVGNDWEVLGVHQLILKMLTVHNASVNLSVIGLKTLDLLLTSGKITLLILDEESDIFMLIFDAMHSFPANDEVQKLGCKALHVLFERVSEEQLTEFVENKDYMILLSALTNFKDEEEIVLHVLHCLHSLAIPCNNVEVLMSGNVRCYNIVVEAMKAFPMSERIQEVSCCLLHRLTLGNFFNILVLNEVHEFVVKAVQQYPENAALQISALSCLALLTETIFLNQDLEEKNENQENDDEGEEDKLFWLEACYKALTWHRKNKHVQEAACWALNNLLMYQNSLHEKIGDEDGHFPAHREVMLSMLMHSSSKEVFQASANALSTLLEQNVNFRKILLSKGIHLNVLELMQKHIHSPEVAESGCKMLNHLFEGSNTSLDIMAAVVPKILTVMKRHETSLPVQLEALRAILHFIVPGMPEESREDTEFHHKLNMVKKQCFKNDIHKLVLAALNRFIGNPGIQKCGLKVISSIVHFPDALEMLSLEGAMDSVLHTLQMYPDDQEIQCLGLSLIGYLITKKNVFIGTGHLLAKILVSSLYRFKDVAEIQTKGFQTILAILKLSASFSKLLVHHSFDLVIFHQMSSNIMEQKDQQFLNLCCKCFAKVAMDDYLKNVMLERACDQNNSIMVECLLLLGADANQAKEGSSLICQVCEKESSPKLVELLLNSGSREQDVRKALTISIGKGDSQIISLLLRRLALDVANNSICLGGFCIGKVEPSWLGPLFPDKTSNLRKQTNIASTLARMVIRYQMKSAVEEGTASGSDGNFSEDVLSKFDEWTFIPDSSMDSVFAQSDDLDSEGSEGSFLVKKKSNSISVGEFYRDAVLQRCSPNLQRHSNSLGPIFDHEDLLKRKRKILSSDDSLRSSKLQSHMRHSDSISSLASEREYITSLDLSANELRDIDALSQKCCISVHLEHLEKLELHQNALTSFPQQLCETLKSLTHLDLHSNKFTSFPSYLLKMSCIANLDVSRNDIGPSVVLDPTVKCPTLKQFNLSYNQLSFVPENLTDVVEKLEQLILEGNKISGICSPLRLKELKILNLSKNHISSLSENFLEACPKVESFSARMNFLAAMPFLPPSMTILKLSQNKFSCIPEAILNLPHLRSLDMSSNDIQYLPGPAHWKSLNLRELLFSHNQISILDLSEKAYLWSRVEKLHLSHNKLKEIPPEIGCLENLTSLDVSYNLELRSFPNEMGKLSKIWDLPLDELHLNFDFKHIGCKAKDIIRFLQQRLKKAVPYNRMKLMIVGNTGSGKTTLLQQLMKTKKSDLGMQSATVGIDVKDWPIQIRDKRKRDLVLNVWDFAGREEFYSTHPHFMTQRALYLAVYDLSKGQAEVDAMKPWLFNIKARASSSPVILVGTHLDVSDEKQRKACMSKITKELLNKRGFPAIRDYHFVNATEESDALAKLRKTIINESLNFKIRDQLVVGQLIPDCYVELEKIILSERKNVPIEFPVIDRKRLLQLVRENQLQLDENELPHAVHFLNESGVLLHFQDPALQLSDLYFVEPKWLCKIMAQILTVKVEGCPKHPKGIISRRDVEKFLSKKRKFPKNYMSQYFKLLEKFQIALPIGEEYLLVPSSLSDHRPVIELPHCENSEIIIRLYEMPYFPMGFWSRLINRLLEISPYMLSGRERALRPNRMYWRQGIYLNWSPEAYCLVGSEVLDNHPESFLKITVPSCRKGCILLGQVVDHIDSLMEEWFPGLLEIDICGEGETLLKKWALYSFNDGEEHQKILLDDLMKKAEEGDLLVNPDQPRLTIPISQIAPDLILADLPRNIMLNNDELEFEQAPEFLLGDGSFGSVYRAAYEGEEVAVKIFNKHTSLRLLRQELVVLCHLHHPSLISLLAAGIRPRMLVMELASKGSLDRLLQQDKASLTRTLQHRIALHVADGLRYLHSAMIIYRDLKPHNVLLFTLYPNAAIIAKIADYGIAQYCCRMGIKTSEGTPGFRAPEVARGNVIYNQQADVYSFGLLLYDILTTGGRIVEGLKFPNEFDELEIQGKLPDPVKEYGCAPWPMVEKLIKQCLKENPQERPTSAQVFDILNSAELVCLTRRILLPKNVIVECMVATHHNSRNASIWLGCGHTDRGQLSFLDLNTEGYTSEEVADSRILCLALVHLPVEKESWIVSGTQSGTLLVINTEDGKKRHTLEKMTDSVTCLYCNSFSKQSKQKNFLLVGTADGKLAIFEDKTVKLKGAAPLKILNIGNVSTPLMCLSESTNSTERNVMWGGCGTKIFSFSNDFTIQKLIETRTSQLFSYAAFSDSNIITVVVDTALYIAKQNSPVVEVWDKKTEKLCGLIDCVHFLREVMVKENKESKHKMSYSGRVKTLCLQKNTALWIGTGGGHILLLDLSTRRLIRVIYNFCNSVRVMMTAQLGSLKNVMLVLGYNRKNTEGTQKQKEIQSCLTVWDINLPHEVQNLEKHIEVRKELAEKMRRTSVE

IC50 [µM] | SMILES
0.01 to 0.1 | C[C@@H]1CCNC(=O)OCCc2nc(cn2C)-c2n[nH]c3ccc(cc23)O1 [Example 161, (13R)-4,13-dimethyl-8,14-dioxa-4,10,19,20,23-pentaazatetracyclo[13.5.2.1^2,5.0^18,21]tricosa-1(20),2,5(23),15(22),16,18(21)-hexaen-9-one]
0.01 to 0.1 | C[C@@H]1CCNC(=O)O[C@@H](C)c2cccc(n2)-c2n[nH]c3ccc(cc23)O1 [Example 150, (7S,13R)-7,13-dimethyl-8,14-dioxa-10,19,20,23-tetraazatetracyclo[13.5.2. 1^2,6.0^18,21]tricosa-1(20),2(23),3,5,15(22),16,18(21)-heptaen-9-one]
< 0.01 | O=C1NCCCOc2ccc3[nH]nc(c3c2)-c2csc(n2)CO1 [Example 147, 7,13-dioxa-4-thia-9,18,19,22-tetraazatetracyclo[12.5.2.1^2,5.0^17,20]docosa-1(19),2,5(22),14(21),15,17(20)-hexaen-8-one]
< 0.01 | CN1CCCNC(=O)OCc2cccc(c2)-c2n[nH]c3ccc1cc23 [Example 163, 14-methyl-8-oxa-10,14,19,20-tetraazatetracyclo[13.5.2.1^2,6.0^18,21]tricosa-1(20),2(23),3,5,15,17,21-heptaen-9-one]
0.1 to 1 | O=C1NCCOc2ccc3[nH]nc(c3c2)-c2cnn(c2)CCCO1 [Example 121, 9,14-dioxa-4,5,11,19,20-pentaazatetracyclo[13.5.2.1^2,5.0^18,21]tricosa-1(20),2(23),3,15,17,21-hexaen-10-one]
< 0.01 | O=C1NCCCOc2ccc3[nH]nc(c3c2)-c2cncc(c2)CO1 [Example 1, 8,14-dioxa-4,10,19,20-tetraazatetracyclo[13.5.2.1^2,6.0^18,21]tricosa-1(20),2,4, 6(23),15,17,21-heptaen-9-one]
< 0.01 | C[C@@H]1CCNC(=O)O[C@H](C)c2cccc(n2)-c2n[nH]c3ccc(cc23)O1 [Example 136, (7R,13R)-7,13-dimethyl-8,14-dioxa-10,19,20,23-tetraazatetracyclo[13.5.2.1^2,6.0^18,21]tricosa-1(20),2,4,6(23),15,17,21-heptaen-9-one]
< 0.01 | O=C1NCCCOc2ccc3[nH]nc(c3c2)-c2cccc(c2)CO1 [Example 5, 8,14-dioxa-10,19,20-triazatetracyclo[13.5.2.1^2,6.0^18,21]tricosa-1(20),2,4,6(23), 15,17,21-heptaen-9-one]
< 0.01 | O=C1NCCCOc2ccc3[nH]nc(c3c2)-c2cc(Cl)cc(c2)CO1 [Example 27, 4-chloro-8,14-dioxa-10,19,20-triazatetracyclo[13.5.2.1^2,6.0^18,21]tricosa-1(20), 2,4,6(23),15,17,21-heptaen-9-one]
< 0.01 | CC1CCCN1c1cc2cc(c1)-c1n[nH]c3ccc(cc13)OCCCNC(=O)OC2 (stereo not drawn) [Example 76, 4-(2-methylpyrrolidin-1-yl)-8,14-dioxa-10,19,20-triazatetracyclo[13.5.2.1^2,6.0^18,21]tricosa-1(20),2(23),3,5,15(22),16,18(21)-heptaen-9-one]
< 0.01 | Cc1cc2cc(c1)-c1n[nH]c3ccc(cc13)OCCCNC(=O)OC2 [Example 18, 4-methyl-8,14-dioxa-10,19,20-triazatetracyclo[13.5.2.1^2,6.0^18,21]tricosa-1(20),2,4,6(23),15,17,21-heptaen-9-one]
0.01 to 0.1 | O=C1NCCOc2ccc3[nH]nc(c3c2)-c2cccc(c2)CCO1 [Example 24, 9,14-dioxa-11,19,20-triazatetracyclo[13.5.2.1^2,6.0^18,21]tricosa-1(20),2,4, 6(23),15,17,21-heptaen-10-one]
0.01 to 0.1 | C[C@H]1OC(=O)NCCCOc2ccc3[nH]nc(c3c2)-c2cc(F)cc1c2 (single isomer, unassigned) [Example 108, (7R)- or (7S)-4-fluoro-7-methyl-8,14-dioxa-10,19,20-triazatetracyclo[13.5.2.1^2,6.0^18,21]tricosa-1(20),2,4,6(23),15,17,21-heptaen-9-one]
< 0.01 | C[C@@H]1CCNC(=O)OCc2cccc(c2)-c2n[nH]c3ncc(cc23)O1 [Example 165, (13R)-13-methyl-8,14-dioxa-10,17,19,20-tetraazatetracyclo[13.5.2.1^2,6.0^18,21]tricosa-1(20),2(23),3,5,15(22),16,18(21)-heptaen-9-one]
< 0.01 | Cc1c(F)cc2cc1COC(=O)NCCCOc1ccc3[nH]nc-2c3c1 [Example 28, 4-fluoro-5-methyl-8,14-dioxa-10,19,20-triazatetracyclo[13.5.2.1^2,6.0^18,21]tricosa-1(20),2,4,6(23),15,17,21-heptaen-9-one]
< 0.01 | C[C@@H]1CN(c2cc3cc(c2)-c2n[nH]c4ccc(cc24)OCCCNC(=O)OC3)C[C@H](C)O1 [Example 17, 4-[(2R,6S)-2,6-dimethylmorpholin-4-yl]-8,14-dioxa-10,19,20-triazatetra cyclo[13.5.2.1^2,6.0^18,21]tricosa-1(20),2,4,6(23),15,17,21-heptaen-9-one]
< 0.01 | O=C1NC[C@@H](F)COc2ccc3[nH]nc(c3c2)-c2cncc(n2)CO1 [Example 172, (12R)-12-fluoro-8,14-dioxa-4,10,19,20,23-pentaazatetracyclo[13.5.2.1^2,6.0^18,21]tricosa-1(20),2(23),3,5,15,17,21-heptaen-9-one]
< 0.01 | O=C1NCC(F)(F)COc2ccc3[nH]nc(c3c2)-c2cncc(n2)CO1 [Example 170, 12,12-difluoro-8,14-dioxa-4,10,19,20,23-pentaazatetracyclo[13.5.2.1^2,6.0^18,21]tricosa-1(20),2(23),3,5,15(22),16,18(21)-heptaen-9-one]
< 0.01 | O=C1NCCCOc2ccc3[nH]nc(c3c2)-c2cc(F)c(F)c(c2)CO1 [Example 29, 4,5-difluoro-8,14-dioxa-10,19,20-triazatetracyclo[13.5.2.1^2,6.0^18,21]tricosa-1(20),2,4,6(23),15,17,21-heptaen-9-one]
< 0.01 | C[C@@H]1CCNC(=O)OCc2cccc(c2)-c2n[nH]c3c(F)cc(cc23)O1 [Example 153, (13R)-17-fluoro-13-methyl-8,14-dioxa-10,19,20-triazatetracyclo[13.5.2. 1^2,6.0^18,21]tricosa-1(20),2(23),3,5,15(22),16,18(21)-heptaen-9-one]
< 0.01 | O=C1NC[C@@H](F)COc2ccc3[nH]nc(c3c2)-c2cccc(c2)CO1 [Example 168, (12R)-12-fluoro-8,14-dioxa-10,19,20-triazatetracyclo[13.5.2.1^2,6.0^8211]tricosa-1(20),2(23),3,5,15(22),16,18(21)-heptaen-9-one]
< 0.01 | O=C1NCCCOc2ccc3[nH]nc(c3c2)-c2csc(n2)CCO1 [Example 134, 8,14-dioxa-4-thia-10,19,20,23-tetraazatetracyclo[13.5.2.1^2,5.0^18,21]tricosa-1(20),2,5(23),15,17,21-hexaen-9-one]
< 0.01 | C[C@@H]1CCNC(=O)OCc2cccc(c2)-c2n[nH]c3ccc(nc23)O1 [Example 157, (13R)-13-methyl-8,14-dioxa-10,19,20,22-tetraazatetracyclo[13.5.2. 1^2,6.0^18,21]tricosa-1(20),2(23),3,5,15,17,21-heptaen-9-one]
< 0.01 | C[C@@H]1CCNC(=O)OCc2cc(c[nH]c2=O)-c2n[nH]c3ccc(cc23)O1 [Example 144, (13R)-13-methyl-8,14-dioxa-4,10,19,20-tetraazatetracyclo[13.5.2.1^2,6.0^18,21]tricosa-1(20),2,6(23),15,17,21-hexaene-5,9-dione]
< 0.01 | O=C1NCCCOc2ccc3[nH]nc(c3c2)-c2cnn(c2)CCO1 [Example 51, 8,14-dioxa-4,5,10,19,20-pentaazatetracyclo[13.5.2.1^2,5.0^18,21]tricosa-1(20),2(23),3,15(22),16,18(21)-hexaen-9-one]
< 0.01 | O=C1NCCCOc2ccc3[nH]nc(c3c2)-c2cc(cc(N3CCC4(COC4)C3)c2)CO1 [Example 14, 4-{2-oxa-6-azaspiro[3.4]octan-6-yl}-8,14-dioxa-10,19,20-triazatetracyclo[13.5.2.1^2,6.0^18,21]tricosa-1(20),2,4,6(23),15,17,21-heptaen-9-one]
< 0.01 | O=C1NCCCOc2ccc3[nH]nc(c3c2)-c2cc(cc(C3=CCOC3)c2)CO1 [Example 37, 4-(2,5-dihydrofuran-3-yl)-8,14-dioxa-10,19,20-triazatetracyclo[13.5.2.1^2,6.0^18,21]tricosa-1(20),2,4,6(23),15,17,21-heptaen-9-one]
< 0.01 | O=C1NCCCOc2ccc3[nH]nc(c3c2)-c2cccc(n2)CO1 [Example 4, 8,14-dioxa-10,19,20,23-tetraazatetracyclo[13.5.2.1^2,6.0^18,21]tricosa-1(20),2,4, 6(23),15,17,21-heptaen-9-one]
0.1 to 1 | CCC1OC(=O)NCCCOc2ccc3[nH]nc(c3c2)-c2cccc1c2 (single isomer, unassigned) [Example 115, (7R)- or (7S)-7-ethyl-8,14-dioxa-10,19,20-triazatetracyclo[13.5.2.1^2,6.0^18,21]tricosa-1(20),2,4,6(23),15,17,21-heptaen-9-one]
< 0.01 | CC1CCCN(c2cc3cc(c2)-c2n[nH]c4ccc(cc24)OCCCNC(=O)OC3)C1 (stereo not drawn) [Example 58, 4-(3-methylpiperidin-1-yl)-8,14-dioxa-10,19,20-triazatetracyclo[13.5.2.1^2,6.0^18,21]tricosa-1(20),2,4,6(23),15,17,21-heptaen-9-one]
